ChEMBL document CHEMBL4229404, “Druggability Assessment of Targets Used in Kinetic Target-Guided Synthesis” (J Med Chem, 2018)

What was measured:
[1] = target: T1, Bifunctional ligase/repressor BirA (Staphylococcus aureus, UniProt A0A0E7NXW5); experiment: Inhibition of Staphylococcus aureus biotin protein ligase by LC/MS-SIM analysis
T1 sequence (A0A0E7NXW5 whole entry): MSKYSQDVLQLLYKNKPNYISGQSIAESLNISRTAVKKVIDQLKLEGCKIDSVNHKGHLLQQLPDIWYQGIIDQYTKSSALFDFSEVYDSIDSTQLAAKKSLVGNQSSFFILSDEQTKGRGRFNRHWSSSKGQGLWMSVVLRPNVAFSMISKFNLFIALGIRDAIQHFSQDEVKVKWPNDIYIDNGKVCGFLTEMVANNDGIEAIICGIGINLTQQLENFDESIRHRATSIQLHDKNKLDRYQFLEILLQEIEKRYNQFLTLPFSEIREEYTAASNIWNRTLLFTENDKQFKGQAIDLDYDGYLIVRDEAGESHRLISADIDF

[2] = species: Homo sapiens; experiment: Inhibition of human recombinant 14-3-3 protein at 300 uM after 8 hrs
[3] = target: Acetylcholinesterase (Electrophorus electricus, UniProt O42275)
Description: Binding affinity to electric eel AChE after 24 hrs by LC/MS-SIM analysis

[4] = target: Carbonic anhydrase 2 (Homo sapiens, UniProt P00918); experiment: Inhibition of CA2 (unknown origin)
[5] = target: T2, Chitinase B (Serratia marcescens, UniProt P11797); experiment: Inhibition of Serratia marcescens 6x-His-tagged ChiB after 20 hrs by LCMS-SIR analysis
T2 sequence (P11797 whole entry): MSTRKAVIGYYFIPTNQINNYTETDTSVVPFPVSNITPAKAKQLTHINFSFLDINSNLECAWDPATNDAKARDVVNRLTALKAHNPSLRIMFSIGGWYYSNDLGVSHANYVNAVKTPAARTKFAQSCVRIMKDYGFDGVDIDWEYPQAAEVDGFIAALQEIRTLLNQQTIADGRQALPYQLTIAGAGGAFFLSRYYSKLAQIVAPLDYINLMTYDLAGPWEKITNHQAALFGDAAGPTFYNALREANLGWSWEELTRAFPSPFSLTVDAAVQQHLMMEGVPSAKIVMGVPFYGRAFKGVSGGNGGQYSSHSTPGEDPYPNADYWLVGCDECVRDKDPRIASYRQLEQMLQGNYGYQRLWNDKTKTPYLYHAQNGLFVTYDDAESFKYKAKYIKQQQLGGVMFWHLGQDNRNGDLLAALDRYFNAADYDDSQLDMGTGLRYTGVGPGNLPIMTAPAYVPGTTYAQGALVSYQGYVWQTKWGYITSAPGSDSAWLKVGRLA

[6] = target: HTH-type transcriptional regulator EthR (Mycobacterium tuberculosis, UniProt P9WMC1); experiment: Inhibition of Mycobacterium tuberculosis EthR
Sequence of HTH-type transcriptional regulator EthR (P9WMC1 whole entry): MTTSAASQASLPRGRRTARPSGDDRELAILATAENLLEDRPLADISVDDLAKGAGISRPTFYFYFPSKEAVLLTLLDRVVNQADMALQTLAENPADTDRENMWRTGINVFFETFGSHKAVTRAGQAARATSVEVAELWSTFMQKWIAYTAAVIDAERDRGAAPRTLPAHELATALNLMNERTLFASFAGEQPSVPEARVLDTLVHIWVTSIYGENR

Sequence of Acetylcholinesterase (O42275 whole entry): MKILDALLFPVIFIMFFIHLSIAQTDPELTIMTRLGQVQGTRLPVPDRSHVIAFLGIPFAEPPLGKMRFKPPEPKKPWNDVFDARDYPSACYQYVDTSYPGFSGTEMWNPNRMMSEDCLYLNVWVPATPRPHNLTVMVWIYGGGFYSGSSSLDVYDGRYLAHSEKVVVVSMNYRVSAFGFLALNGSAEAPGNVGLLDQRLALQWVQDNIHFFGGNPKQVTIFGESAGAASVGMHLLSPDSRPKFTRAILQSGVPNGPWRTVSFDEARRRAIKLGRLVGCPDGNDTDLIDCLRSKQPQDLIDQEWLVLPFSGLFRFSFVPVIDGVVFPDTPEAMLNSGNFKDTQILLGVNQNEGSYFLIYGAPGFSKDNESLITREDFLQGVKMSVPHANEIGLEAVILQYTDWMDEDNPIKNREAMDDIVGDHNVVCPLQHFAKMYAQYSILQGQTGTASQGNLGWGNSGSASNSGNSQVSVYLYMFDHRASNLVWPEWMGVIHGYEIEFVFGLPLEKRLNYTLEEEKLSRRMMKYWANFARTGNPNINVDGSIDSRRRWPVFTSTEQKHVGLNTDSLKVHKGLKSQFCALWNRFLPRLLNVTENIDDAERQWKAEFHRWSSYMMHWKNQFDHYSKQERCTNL

## Nc1ncnc2c1ncn2CCCCn1cc(CCCCC[C@@H]2SC[C@@H]3NC(=O)N[C@@H]32)nn1
[1]
  Ki: 660 nM

## C=CC(C)(C)OC[C@H]1O[C@H](O[C@@H]2C3=C([C@H](C)CNC(=O)[C@H]4CO4)C[C@H](O)[C@]3(C)/C=C3/[C@@H](COC)CC[C@@]3(C)[C@@H](C)[C@H]2O)[C@H](O)[C@@H](O)[C@@H]1O
[2]
  inhibition: 37%

## CC[N+](C)(CC)CCC[n+]1c(-c2ccccc2)c2cc(N)ccc2c2ccccc21
[3]
  Kd: 1100 nM

## CCOC(=O)c1cccc(CSCc2ccc(S(N)(=O)=O)cc2)c1
[4]
  IC50: 59 nM

## [H]/N=C(/NCCC[C@H](NC(=O)Cn1nncc1CO/N=C/c1ccnc2ccccc12)C(=O)N(Cc1ccccc1)Cc1ccccc1)NC(=O)NC
[5]
  IC50: 22 nM

## O=C(Cn1cc(CNS(=O)(=O)c2ccc(I)cc2)nn1)N1CCC(c2nc(-c3cccs3)no2)CC1
[6]
  IC50: 580 nM
